Data taken from patent publication US5250548A, “Angiotensin II receptor antagonists” (Abbott Laboratories, priority 1992, dated 1993).
Structures can show the parent of a compound that is named as a salt.

System: hypertension and congestive heart failure
Assay: not given
Details: cited from earlier work

Row | SMILES | clinical efficacy
1 | CCOC(=O)[C@H](CCc1ccccc1)N[C@@H](C)C(=O)N1CCC[C@H]1C(=O)O [enalapril] | clinical efficacy in treating hypertension and congestive heart failure
2 | COc1ccc(C[C@H](NC(=O)CC(C)(C)N)C(=O)N[C@@H](Cc2cnc[nH]2)C(=O)N[C@@H](CC2CCCCC2)[C@@H](O)[C@@H](O)CC(C)C)cc1 [enalkiren] | clinical efficacy in treating hypertension and congestive heart failure
3 | C[C@H](CS)C(=O)N1CCC[C@H]1C(=O)O [captopril] | clinical efficacy in treating hypertension and congestive heart failure

System: angiotensin II receptor
Assay: not given
Details: cited from earlier work

Row | SMILES | antagonism of the actions of angiotensin II
4 | CNCC(=O)N[C@@H](CCCN=C(N)N)C(=O)N[C@H](C(=O)N[C@@H](Cc1ccc(O)cc1)C(=O)N[C@H](C(=O)N[C@@H](Cc1cnc[nH]1)C(=O)N1CCC[C@H]1C(=O)N[C@@H](C)C(=O)O)C(C)C)C(C)C [saralasin, [Sar^1,Ala^8] angiotensin II] | potent antagonist of the actions of angiotensin II

System: renal artery ligated rats
Assay: In vivo blood pressure lowering in renal artery ligated hypertensive rats
Parameters: species or system rat
Details: dose of 30 mg/kg

Row | SMILES | reduction in mean arterial blood pressure (MAP)
5 | CCCN(Cc1ccc(-c2ccccc2-c2nnn[nH]2)cc1)c1ncccc1C(=O)O [Example 88, 2-{N-Propyl-N-[(2'-[1H-tetrazol-5-yl]biphenyl-4-yl)methyl]amino}pyridine-3-carboxylic acid] | caused a reduction in mean arterial blood pressure (MAP)

System: blood pressure
Assay: not given
Details: after intravenous administration; due to its activity as an angiotensin receptor agonist; cited from earlier work

Row | SMILES | effect on blood pressure
6 | CNCC(=O)N[C@@H](CCCN=C(N)N)C(=O)N[C@H](C(=O)N[C@@H](Cc1ccc(O)cc1)C(=O)N[C@H](C(=O)N[C@@H](Cc1cnc[nH]1)C(=O)N1CCC[C@H]1C(=O)N[C@@H](C)C(=O)O)C(C)C)C(C)C [saralasin, [Sar^1,Ala^8] angiotensin II] | initial increase in blood pressure after intravenous administration

System: not given
Assay: not given
Details: cited from earlier work

Row | SMILES | oral bioavailability
7 | CNCC(=O)N[C@@H](CCCN=C(N)N)C(=O)N[C@H](C(=O)N[C@@H](Cc1ccc(O)cc1)C(=O)N[C@H](C(=O)N[C@@H](Cc1cnc[nH]1)C(=O)N1CCC[C@H]1C(=O)N[C@@H](C)C(=O)O)C(C)C)C(C)C [saralasin, [Sar^1,Ala^8] angiotensin II] | very poor oral bioavailability

Biological target: T1, angiotensin II receptor (Oryctolagus cuniculus, UniProt P34976)
T1 construct: Main abdominal aortas were removed and placed in Krebs-Henseleit buffer; from tissue; host or cells: main abdominal aorta rings (3 mm) of female New Zealand White rabbits
T1 sequence (P34976 1-359): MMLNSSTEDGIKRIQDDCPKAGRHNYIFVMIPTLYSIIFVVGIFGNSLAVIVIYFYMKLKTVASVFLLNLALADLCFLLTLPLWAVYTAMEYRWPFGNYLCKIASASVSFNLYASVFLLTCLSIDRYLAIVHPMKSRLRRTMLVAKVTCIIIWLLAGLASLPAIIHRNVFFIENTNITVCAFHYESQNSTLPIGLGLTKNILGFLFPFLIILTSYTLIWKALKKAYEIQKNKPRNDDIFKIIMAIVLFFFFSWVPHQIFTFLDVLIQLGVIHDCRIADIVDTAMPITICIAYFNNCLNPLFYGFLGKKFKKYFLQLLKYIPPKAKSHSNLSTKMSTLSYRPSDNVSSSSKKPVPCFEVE
Assay: Angiotensin II functional assay: antagonism of contraction of rabbit aorta (isolated tissue, Schild analysis)
Parameters: species or system rabbit (female New Zealand White)
Details: antagonist incubated 30 minutes, negative logarithm of antagonist concentration that requires doubling of the angiotensin II concentration
Protocol: Antagonism of Contraction of Rabbit Aorta The protocol reported by A. T Chiu and […]. Wong, et al. Hypertension, 13, 489-497 (1989)) was followed with a few modifications. Female New Zealand White rabbits weighing 2-5 kg were sedated with carbon dioxide and then sacrificed. Main abdominal aortas were removed and placed in Krebs-Henseleit buffer at room temperature. The tissues were cleaned of extraneous connective tissue, cut into 3 mm rings, and suspended within a 10 mL tissue bath. All dilutions of peptide preparations were made with 0.3% aqueous BSA. The tissues were primed with 55 mM potassium chloride. Tissues were pre-loaded with 1 g of tension. Tension was recorded on a model 7 Grass polygraph using FT03 transducers. At the end of the equilibrium period, a control cumulative concentration-contractile response curve for angiotensin II (A II: 1×10^-10 -10^-8 M) was obtained. The tissue was washed several times until the baseline was reached. Forty five minutes later, test compound (antagonist) was added and the tissue was incubated for 30 minutes. The concentration-response curve for A II was then repeated in the presence of the test compound. One dose of antagonist was tested per tissue only. […] All responses to the control agonist were calculated as a percentage of the maximum response.

Row | pA2 | SMILES
8 | 8.93 | O=C(O)c1cccnc1N(Cc1ccc(-c2ccccc2-c2nn[nH]n2)cc1)CC1CC1 [Example 206, 2-{N-Cyclopropylmethyl-N-[ (2'-[1H-tetrazol-5-yl]biphenyl-4-yl)methyl]amino}pyridine-3-carboxylic acid]
9 | 9.60 | CCCN(Cc1ccc(-c2ccccc2-c2nnn[nH]2)cc1)c1nc(C)ncc1C(=O)O [Example 99, 2-Methyl-4-{N-propyl-N-[(2'-[1H-tetrazol-5-yl]biphenyl-4-yl)methyl]amino}pyrimidine-5-carboxylic acid]

Same assay, conditions: antagonist incubated 30 minutes, negative logarithm of antagonist concentration that requires doubling of the angiotensin II concentration, read-out: pA2 (converted)

Row | Kb [nM] | SMILES
10 | 0.234 | CCCN(Cc1ccc(-c2ccccc2-c2nn[nH]n2)cc1)c1nc(F)ccc1C(=O)O [Example 160, 2-{N-Propyl-N-[(2'-[1H-tetrazol-5-yl]biphenyl-4-yl)methyl]amino}-6-fluoropyridine-3-carboxylic acid]
11 | 4.57 | CCCN(Cc1ccc(-c2ccccc2-c2nnn[nH]2)cc1)c1ncccc1C(=O)C(F)(F)C(=O)OCC [Example 137, 3-[2,2-Difluoro-2-(ethoxycarbonyl)acetyl]-2-{N-propyl-N-[(2'-[1H-tetrazol-5-yl]biphenyl-4-yl]methyl]amino}pyridine]
12 | 1.62 | CCCN(Cc1ccc(-c2ccccc2-c2nn[nH]n2)cc1)c1nc(C(F)(F)F)ncc1C(=O)O [Example 114, 2-Trifluoromethyl-4-{N-propyl-N-[(2'-[1H-tetrazol-5-yl]biphenyl-4-yl)methyl]amino}pyrimidine-5-carboxylic acid]
13 | 0.229 | CCCN(Cc1ccc(-c2ccccc2-c2nn[nH]n2)cc1)c1nccc(C)c1C(=O)O [Example 194, 4-Methyl-2-{N-propyl-N-[(2'-[1H-tetrazol-5-yl]biphenyl-4-yl)methyl]amino}pyridine-3-carboxylic acid]
14 | 0.851 | CCCCN(Cc1ccc(-c2ccccc2-c2nn[nH]n2)cc1)c1nnc(Cl)cc1C(=O)O [Example 168, 6-{N-Butyl-N-[(2'-[1H-tetrazol-5-yl]biphenyl-4-yl)methyl]amino}-3-chloropyridazine-5-carboxylic acid]
15 | 0.257 | CCCCN(Cc1ccc(-c2ccccc2-c2nnn[nH]2)cc1)c1ncncc1C(=O)OC(C)OC(=O)C1CCN(C)CC1 (stereo not shown) [Example 121, 1-(1-Methylpiperidin-4-ylcarbonyloxy)ethyl 4-{N-butyl-N-[(2'-[1H-tetrazol-5-yl]biphenyl-4-yl)methyl]amino}pyrimidine-5-carboxylate]
16 | 1.45 | CCCN(Cc1ccc(-c2ccccc2-c2nn[nH]n2)cc1)c1ncccc1C(O)CC(=O)O (stereo not shown) [Example 140, 3-(2-Carboxy-1-hydroxyethyl)-2-{N-propyl-N-[(2'-[1H-tetrazol-5-yl]biphenyl-4-yl)methyl]amino}pyridine]
17 | 0.0891 | CCCCN(Cc1ccc(-c2ccccc2-c2nn[nH]n2)cc1)c1nnccc1C(=O)O [Example 169, 3-{N-Butyl-N-[(2'-[1H-tetrazol-5-yl]biphenyl-4-yl)methyl]amino}pyridazine-4-carboxylic acid]
18 | 0.135 | CCCCN(Cc1ccc(-c2ccccc2-c2nn[nH]n2)cc1)c1nccnc1C(=O)O [Example 157, 3-{N-Butyl-N-[(2'-[1H-tetrazol-5-yl]biphenyl-4-yl)methyl]amino}pyrazine-2-carboxylic acid]
19 | 0.309 | CCCCN(Cc1ccc(-c2ccccc2-c2nnn[nH]2)cc1)c1nc(F)ccc1C(=O)O [Example 162, 2-{N-Butyl-N-[(2'-[1H-tetrazol-5-yl]biphenyl-4-yl)methyl]amino}-6-fluoropyridine-3-carboxylic acid]
20 | 0.631 | CCCN(Cc1ccc(-c2ccccc2-c2nn[nH]n2)cc1)c1ncccc1NS(=O)(=O)C(F)(F)F [Example 147, 3-Trifluoromethanesulfonamido-2-{N-propyl-N-[(2'-[1H-tetrazol-5-yl]biphenyl-4-yl)methyl]amino}pyridine]
21 | 0.331 | CCCCN(Cc1ccc(-c2ccccc2-c2nnn[nH]2)cc1)c1ncncc1C(=O)OCOC(=O)C(C)(C)C [Example 82, Pivaloyloxymethyl 4-{N-butyl-N-[(2'-[1H-tetrazol-5-yl]biphenyl-4-yl)methyl]amino}pyrimidine-5-carboxylate]
22 | 1.29 | O=C(O)c1cccnc1NCc1ccc(-c2ccccc2-c2nn[nH]n2)cc1 [Example 226]
23 | 0.339 | CCCCN(Cc1ccc(-c2ccccc2-c2nn[nH]n2)cc1)c1ncccc1C(=O)O [Example 229, 2-{N-Butyl-N-[(2'-[1H-tetrazol-5-yl]biphenyl-4-yl)methyl]amino}pyridine-3-carboxylic acid]
24 | 0.912 | CCCN(Cc1ccc(-c2ccccc2-c2nn[nH]n2)cc1)c1ncc(F)cc1C(=O)O [Example 180, 5-Fluoro-2-{N-propyl-N-[(2'-[1H-tetrazol-5-yl]biphenyl-4-yl)methyl]amino}pyridine-3-carboxylic acid]
25 | 0.309 | CCCCN(Cc1ccc(-c2ccccc2-c2nnn[nH]2)cc1)c1nc(OC)ccc1C(=O)O [Example 163, 2-{N-Butyl-N-[(2' -[1H-tetrazol-5-yl]biphenyl-4-yl)methyl]amino}-6-methoxypyridine-3-carboxylic acid]
26 | 3.39 | CCCN(Cc1ccc(-c2ccccc2-c2nn[nH]n2)cc1)c1ncccc1C(O)C(F)(F)C(=O)OCC (stereo not shown) [Example 135, 3-(2.2-Difluoro-2-ethoxycarbonyl-1-hydroxyethyl)-2-{N-propyl-N-[(2'-[1H-tetrazol-5-yl]biphenyl-4-yl)methyl]amino}pyridine]
27 | 0.214 | CCCN(Cc1ccc(-c2ccccc2-c2nn[nH]n2)cc1)c1nnccc1C(=O)O [Example 172, 3-{N-Propyl-N-[(2'-[1H-tetrazol-5-yl]biphenyl-4-yl)methyl]amino}pyridazine-4-carboxylic acid]
28 | 0.209 | CCCN(Cc1ccc(-c2ccccc2-c2nn[nH]n2)cc1)c1ncncc1C(=O)O [Example 71, 4-{N-Propyl-N-[(2'-[1H-tetrazol-5yl]biphenyl-4-yl)methyl]amino}pyrimidine-5-carboxylic acid hydrochloride]
29 | 3.31 | CCCCN(Cc1ccc(-c2ccccc2-c2nn[nH]n2)cc1)c1ncc(C(=O)O)cn1 [Example 167, 2-{N-Butyl-N-[(2'-[1H-tetrazol-5-yl]biphenyl-4-yl)methyl]amino}pyrimidine-5-carboxylic acid]
30 | 0.126 | CCCCN(Cc1ccc(-c2ccccc2-c2nnn[nH]2)cc1)c1ncncc1C(=O)O [Example 53, 4-{N-butyl-N-[(2'-[1H-tetrazol-5-yl]biphenyl-4-yl)methyl]amino}pyrimidine-5-carboxylic acid hydrochloride]
31 | 2.24 | CCCN(Cc1ccc(-c2ccccc2-c2nn[nH]n2)cc1)c1ncccc1C(=O)NS(=O)(=O)c1ccccc1 [Example 203, 2-{N-Propyl-N-[(2'-[1H-tetrazol-5-yl]biphenyl-4-yl)methyl]amino}pyridine-3-(N-benzenesulfonyl)carboxamide]
